From patent US11834698B2, “Process for determining enzyme activity in a cell by activity-based reporter gene technology (ABRGT)” (INDIAN INSTITUTE OF SCIENCE EDUCATION AND RESEARCH, priority 2018, dated 2023)

Target: T1, caspase-3 GFPspark (Homo sapiens, UniProt P42574)
T1 sequence (P42574 29-175 limits assumed): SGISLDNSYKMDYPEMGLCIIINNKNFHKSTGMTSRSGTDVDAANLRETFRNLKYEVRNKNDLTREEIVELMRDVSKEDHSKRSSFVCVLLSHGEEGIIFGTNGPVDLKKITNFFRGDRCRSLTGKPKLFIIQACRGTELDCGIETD
T1 sequence (P42574 176-277 limits assumed): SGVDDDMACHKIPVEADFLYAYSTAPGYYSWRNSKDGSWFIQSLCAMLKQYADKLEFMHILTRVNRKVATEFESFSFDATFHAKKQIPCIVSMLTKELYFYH
Assay: AbRGT FRET imaging / acceptor photobleaching, caspase-3 GFPspark in HeLa cells
Format: cell-based
Parameters: host or cells: HeLa
Conditions: STS 1 μM 10 h, probe 1 μM

Rhodamine-VAD-fluoromethyl ketone [probe 1]
calculated FRET efficiency: 32±2%
rise in GFP intensity in the ROI (n=15 cells): 52±5 a.u.
